Test results as given in patent publication US20080262108A1, “Method” (priority 2004, published 2008).

B1: interferon-gamma (protein, UniProt P01579 24-161, looked up)
Interferon gamma: QDPYVKEAENLKKYFNAGHSDVADNGTLFLGILKNWKEESDRKIMQSQIVSFYFKLFKNFKDDQSIQKSVETIKEDMNVKFFNSNKKKRDDFEKLTNYSVTDLNVQRKAIHELIQVMAELSPAAKTGKRKRSQMLFRG
notes: interferon-gamma (Sigma Aldrich) used as stimulus on macrophages

Assays:
[1] = system: CEL; assay: CEL expression at the mRNA level in treated macrophages (RT-PCR); type: cell-based, human; conditions: monocyte-derived macrophages cultured for 7 days, treated for 24 hours; LPS 1 μg/ml, IFN-γ 200 U/ml, oxLDL 50 μg protein/ml; cells from four donors; FIG. 4C
Protocol: (§1) Macrophage cell culture. Mononuclear cells were isolated through a Ficoll-Hypaque discontinuous gradient (Boyum et al. 1976) from buffy coats obtained from the local blood bank (Sahlgrenska University Hospital, Göteborg, Sweden). The cells were resuspended in RPMI 1640 medium (PM Laboratories GmbH, Pasching, Austria) supplemented with 2 mmol/l glutamine, 2 mmol/l nonessential amino acids, 100 U/ml penicillin, 100 μg/ml streptomycin, and 20 mmol/l sodium pyruvate. Monocytes were obtained by allowing cells to adhere to plastic for 60 min at 37° C. Non-adhered cells were removed by washing with PBS and the adhered monocytes were used immediately or after 4 hours for experiments or left to differentiate into macrophages in supplemented RPMI1640 containing 20% heat-inactivated human serum for up to 9 days. Macrophages were then approximately 95% pure, as judged by flow cytometry. For experiments the cells were incubated for 24 h with supplemented RPMI1640 (pH 7.4) with 1 μg/mL lipopolysaccaride (LPS), interferon-gamma (γ-IFN) 200 U/mL (Sigma Aldrich, Stockholm, Sweden). The viability of cells was >95% in all incubations, as determined by Trypan blue exclusion.
Exposure of macrophages to oxidatively modified LDL. […] Protein concentration of lipoproteins was determined with the BioRad protein assay using γ-globulin as standard. […]

[2] = system: CEL; assay: CEL expression at the protein level in treated macrophages (Western blot); type: cell-based, human; conditions: monocyte-derived macrophages cultured for 7 days, treated for 24 hours; LPS 1 μg/ml, IFN-γ 200 U/ml, oxLDL 50 μg protein/ml; cells from four donors; FIG. 4B
Protocol: as §1, with “For experiments the cells were incubated for 24 h with supplemented RPMI1640 (pH 7.4) with 1 μg/mL lipopolysaccaride (LPS), interferon-gamma (γ-IFN) 200 U/mL (Sigma Aldrich, Stockholm, Sweden).” left out
Exposure of macrophages to oxidatively modified LDL. […] Protein concentration of lipoproteins was determined with the BioRad protein assay using γ-globulin as standard.
Western blot analysis. […] The primary antibodies were detected with POD-conjugated secondary IgG and ECL™ Western Blotting Detection Reagents (Amersham Biosciences), visualized on ECL™ films (Amersham Biosciences).

Row | Molecule | CEL expression at the mRNA level [1] | CEL expression at the protein level [2]
1 | lipopolysaccharide [LPS] | could not detect any consistent increase or decrease in CEL expression | could not detect any consistent increase or decrease in CEL expression
2 | B1 | could not detect any consistent increase or decrease in CEL expression | could not detect any consistent increase or decrease in CEL expression
